For experiment [1], the target named is T1, Integrin alpha-4/beta-1 (Homo sapiens, UniProt P05556+P13612). In words: Antagonistic activity against VLA-4 binding to recombinant human VCAM by ramos cell assay. The experiment is classed as cell-based.
Experiment [2] addresses T1, Integrin alpha-4/beta-1. In words: Antagonistic activity against VLA-4 (derived from ramos cells) binding to recombinant human VCAM by ELISA assay. The experiment is classed as cell-based.

T1 sequence (P05556 whole entry): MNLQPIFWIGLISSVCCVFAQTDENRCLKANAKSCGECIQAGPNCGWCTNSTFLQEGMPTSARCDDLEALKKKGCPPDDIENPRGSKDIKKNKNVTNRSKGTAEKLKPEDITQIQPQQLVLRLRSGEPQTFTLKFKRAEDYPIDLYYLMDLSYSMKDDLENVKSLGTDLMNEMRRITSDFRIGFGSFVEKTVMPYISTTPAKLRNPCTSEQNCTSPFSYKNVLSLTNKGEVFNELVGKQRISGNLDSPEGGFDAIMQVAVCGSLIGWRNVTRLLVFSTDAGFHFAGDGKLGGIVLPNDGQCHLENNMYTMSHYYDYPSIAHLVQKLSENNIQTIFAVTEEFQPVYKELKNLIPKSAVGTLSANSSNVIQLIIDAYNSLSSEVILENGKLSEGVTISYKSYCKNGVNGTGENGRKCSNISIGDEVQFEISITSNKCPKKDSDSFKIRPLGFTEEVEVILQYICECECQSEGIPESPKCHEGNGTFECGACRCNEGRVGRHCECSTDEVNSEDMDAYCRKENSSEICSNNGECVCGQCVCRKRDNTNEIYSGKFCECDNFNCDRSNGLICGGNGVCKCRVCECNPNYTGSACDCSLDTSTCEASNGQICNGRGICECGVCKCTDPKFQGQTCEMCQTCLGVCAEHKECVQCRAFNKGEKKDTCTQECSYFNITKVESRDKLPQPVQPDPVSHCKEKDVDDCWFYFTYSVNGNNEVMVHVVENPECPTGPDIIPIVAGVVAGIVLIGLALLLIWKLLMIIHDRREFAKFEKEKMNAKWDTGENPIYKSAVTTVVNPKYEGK
T1 sequence (P13612 whole entry): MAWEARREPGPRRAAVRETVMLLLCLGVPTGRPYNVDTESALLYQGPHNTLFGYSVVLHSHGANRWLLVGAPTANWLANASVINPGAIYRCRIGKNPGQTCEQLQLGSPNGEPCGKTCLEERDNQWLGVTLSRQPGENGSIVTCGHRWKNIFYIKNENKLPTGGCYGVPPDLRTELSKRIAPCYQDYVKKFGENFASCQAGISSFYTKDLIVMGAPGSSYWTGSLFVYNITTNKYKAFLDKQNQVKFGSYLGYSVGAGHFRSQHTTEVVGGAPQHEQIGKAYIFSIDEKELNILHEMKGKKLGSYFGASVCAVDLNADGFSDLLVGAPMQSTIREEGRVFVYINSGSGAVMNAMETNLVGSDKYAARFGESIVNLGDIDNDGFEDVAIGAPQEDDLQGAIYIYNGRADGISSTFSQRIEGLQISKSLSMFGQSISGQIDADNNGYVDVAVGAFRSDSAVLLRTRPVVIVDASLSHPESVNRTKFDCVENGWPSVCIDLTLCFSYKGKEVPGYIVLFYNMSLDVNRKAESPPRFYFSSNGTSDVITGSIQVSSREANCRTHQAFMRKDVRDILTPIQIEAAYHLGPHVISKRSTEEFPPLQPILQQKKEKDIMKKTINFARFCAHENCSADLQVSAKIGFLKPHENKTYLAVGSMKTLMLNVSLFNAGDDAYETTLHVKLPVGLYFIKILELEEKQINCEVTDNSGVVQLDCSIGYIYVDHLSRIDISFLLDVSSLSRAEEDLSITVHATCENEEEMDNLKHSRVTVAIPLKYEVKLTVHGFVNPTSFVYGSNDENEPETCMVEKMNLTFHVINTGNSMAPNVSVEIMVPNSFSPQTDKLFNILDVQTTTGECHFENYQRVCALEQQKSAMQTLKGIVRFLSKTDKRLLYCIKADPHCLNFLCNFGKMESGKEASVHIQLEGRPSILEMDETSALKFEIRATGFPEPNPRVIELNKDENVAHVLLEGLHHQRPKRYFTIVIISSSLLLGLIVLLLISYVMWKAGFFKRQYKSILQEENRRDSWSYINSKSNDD

As to `O=C(Nc1ccc(C[C@H](NC(=O)C2CCC(=O)N2Cc2ccccc2)C(=O)O)cc1)c1c(Cl)cccc1Cl` (stereo partly drawn), the IC50 on Integrin alpha-4/beta-1 [1] stood at 12 nM; on Integrin alpha-4/beta-1 [2] it was 0.37 nM.
Regarding `O=C(O)[C@H](Cc1ccc(/C=C/c2ccc([N+](=O)[O-])cc2)cc1)NC(=O)[C@@H]1CCC(=O)N1Cc1ccccc1`, the IC50 on Integrin alpha-4/beta-1 [2] was found to be 90 nM.
Regarding `O=C(Nc1ccc(C[C@H](NC(=O)C2CCC(=O)N2Cc2ccccc2)C(=O)O)cc1)c1cccnc1O` (stereo partly drawn), the half-maximal inhibitory concentration (IC50) at Integrin alpha-4/beta-1 [1] stood at 1850 nM; on Integrin alpha-4/beta-1 [2] it was 4 nM.
In the case of `O=C(O)[C@H](Cc1ccc([N+](=O)[O-])cc1)NC(=O)[C@@H]1CCC(=O)N1Cc1ccccc1`, the IC50 at Integrin alpha-4/beta-1 [2] stood at 560 nM.
Consider `Cc1ccc([N+](=O)[O-])cc1C(=O)Nc1ccc(C[C@H](NC(=O)C2CCC(=O)N2Cc2ccccc2)C(=O)O)cc1` (stereo partly drawn), for which the results for the IC50 at Integrin alpha-4/beta-1 [1] and at Integrin alpha-4/beta-1 [2] were 11 nM and 0.26 nM, respectively.
In the case of `O=C(O)[C@H](Cc1cccc2ccccc12)NC(=O)[C@@H]1CCC(=O)N1Cc1ccccc1`, the IC50 on Integrin alpha-4/beta-1 [2] is 230 nM.
Take `O=C(Nc1ccc(C[C@H](NC(=O)[C@@H]2CCC(=O)N2Cc2ccccc2)C(=O)O)cc1)c1ccc([N+](=O)[O-])cc1`: the results for the IC50 at Integrin alpha-4/beta-1 [1] and on Integrin alpha-4/beta-1 [2] were 560 nM and 2.2 nM, respectively.
For `COc1ccc(C(=O)Nc2ccc(C[C@H](NC(=O)C3CCC(=O)N3Cc3ccccc3)C(=O)O)cc2)c(OC)n1` (stereo partly drawn), in that order: 102 nM and 2.4 nM.
For `O=C(Nc1ccc(C[C@H](NC(=O)C2CCC(=O)N2Cc2ccccc2)C(=O)O)cc1)c1ccc(F)cc1C(F)(F)F` (stereo partly drawn), in that order: 28 nM and 0.75 nM.
In the same order, the values of `O=C(Nc1ccc(C[C@H](NC(=O)[C@@H]2CCC(=O)N2Cc2ccccc2)C(=O)O)cc1)c1ccccc1` are 310 nM and 6.3 nM.
As to `COc1ccc([N+](=O)[O-])cc1C(=O)Nc1ccc(C[C@H](NC(=O)C2CCC(=O)N2Cc2ccccc2)C(=O)O)cc1` (stereo partly drawn), the IC50 on Integrin alpha-4/beta-1 [1] is 28 nM; on Integrin alpha-4/beta-1 [2] it was 0.82 nM.
With `O=C(Nc1ccc(C[C@H](NC(=O)C2CCC(=O)N2Cc2ccccc2)C(=O)O)cc1)c1cc(C(F)(F)F)ccc1C(F)(F)F` (stereo partly drawn), the results for the IC50 on Integrin alpha-4/beta-1 [1] and at Integrin alpha-4/beta-1 [2] were 54 nM and 1.1 nM, respectively.
On to `O=C(O)[C@H](Cc1ccccc1)NC(=O)[C@@H]1CCC(=O)N1Cc1ccccc1`, for which, on Integrin alpha-4/beta-1 [2], the IC50 turned out to be 460 nM.
As to `O=C(Nc1ccc(C[C@H](NC(=O)C2CCC(=O)N2Cc2ccccc2)C(=O)O)cc1)c1ccc(Cl)cc1[N+](=O)[O-]` (stereo partly drawn), the IC50 came to 7 nM on Integrin alpha-4/beta-1 [1] and 0.37 nM on Integrin alpha-4/beta-1 [2].
For `COc1ccc(-c2cccnc2C(=O)Nc2ccc(C[C@H](NC(=O)C3CCC(=O)N3Cc3ccccc3)C(=O)O)cc2)cc1` (stereo partly drawn), in that order: 29 nM and 0.88 nM.
For `O=C(Nc1ccc(C[C@H](NC(=O)C2CCC(=O)N2Cc2ccccc2)C(=O)O)cc1)c1ccccn1` (stereo partly drawn), in that order: 260 nM and 3.6 nM.
As to `O=C(O)[C@H](Cc1ccc(CO)cc1)NC(=O)[C@@H]1CCC(=O)N1Cc1ccccc1`, at Integrin alpha-4/beta-1 [2], the IC50 worked out at 152 nM.
Same read-out and setting: to `CC1CCC(C[C@H](NC(=O)[C@@H]2CCC(=O)N2Cc2ccccc2)C(=O)O)CC1` (stereo partly drawn) belongs 42500 nM; to `O=C(O)[C@H](Cc1ccc(COc2ccc([N+](=O)[O-])cc2)cc1)NC(=O)[C@@H]1CCC(=O)N1Cc1ccccc1`, 32 nM.
`O=C(O)[C@H](Cc1ccc(NS(=O)(=O)c2ccc([N+](=O)[O-])cc2)cc1)NC(=O)[C@@H]1CCC(=O)N1Cc1ccccc1`: the IC50 at Integrin alpha-4/beta-1 [1] stood at 16000 nM; at Integrin alpha-4/beta-1 [2] it was 17 nM.
For the compound `O=C(Nc1ccc(C[C@H](NC(=O)C2CCC(=O)N2Cc2ccccc2)C(=O)O)cc1)c1ccccc1[N+](=O)[O-]` (stereo partly drawn), the concentration for half-maximal inhibition (IC50) came out at 33 nM at Integrin alpha-4/beta-1 [1] and 0.87 nM on Integrin alpha-4/beta-1 [2].
On to `O=C(O)[C@H](Cc1ccc2ccccc2c1)NC(=O)[C@@H]1CCC(=O)N1Cc1ccccc1`, for which, at Integrin alpha-4/beta-1 [2], the IC50 is 59 nM.
With `O=C(Nc1ccc(C[C@H](NC(=O)C2CCC(=O)N2Cc2ccccc2)C(=O)O)cc1)c1ccnc2ccccc12` (stereo partly drawn), the half-maximal inhibitory concentration (IC50) turned out to be 80 nM on Integrin alpha-4/beta-1 [1] and 1.4 nM on Integrin alpha-4/beta-1 [2].
With `CC(=O)N[C@@H](Cc1ccc(O)cc1)C(=O)NCc1ccc(C[C@H](NC(=O)[C@@H]2CCC(=O)N2Cc2ccccc2)C(=O)O)cc1`, the half-inhibitory concentration (IC50) at Integrin alpha-4/beta-1 [2] is 20 nM.
The same measure, in the same setting: to `COc1ccc(C[C@H](NC(=O)[C@@H]2CCC(=O)N2Cc2ccccc2)C(=O)O)cc1` belongs 160 nM; to `O=C(O)[C@H](Cc1ccc2c(c1)OCO2)NC(=O)[C@@H]1CCC(=O)N1Cc1ccccc1`, 220 nM.
For `O=C(O)[C@H](Cc1ccc(NS(=O)(=O)c2cccc(C(F)(F)F)c2)cc1)NC(=O)[C@@H]1CCC(=O)N1Cc1ccccc1`, the IC50 at Integrin alpha-4/beta-1 [1] came out at 26000 nM; at Integrin alpha-4/beta-1 [2], 20 nM.
For `CC(=O)N[C@@H](Cc1ccc(O)cc1)C(=O)Nc1ccc(C[C@H](NC(=O)[C@@H]2CCC(=O)N2Cc2ccccc2)C(=O)O)cc1`, in that order: 2100 nM and 8.2 nM.
In the same order, the values of `O=C(Nc1ccc(C[C@H](NC(=O)C2CCC(=O)N2Cc2ccccc2)C(=O)O)cc1)c1cc(F)c(F)cc1F` (stereo partly drawn) are 127 nM and 1.6 nM.
Consider `N#Cc1ccc(C[C@H](NC(=O)[C@@H]2CCC(=O)N2Cc2ccccc2)C(=O)O)cc1`, for which the half-maximal inhibitory concentration (IC50) on Integrin alpha-4/beta-1 [2] is 1000 nM.
As for `CC(=O)N[C@H](Cc1ccc(O)cc1)C(=O)Nc1ccc(C[C@H](NC(=O)[C@@H]2CCC(=O)N2Cc2ccccc2)C(=O)O)cc1`, the values for the 50% inhibitory concentration (IC50) at Integrin alpha-4/beta-1 [1] and on Integrin alpha-4/beta-1 [2] were 1900 nM and 5.3 nM, respectively.
As to `[N-]=[N+]=NCc1ccc(C[C@H](NC(=O)[C@@H]2CCC(=O)N2Cc2ccccc2)C(=O)O)cc1`, on Integrin alpha-4/beta-1 [2], the IC50 was found to be 74 nM.
Same read-out and setting: for `O=C(O)[C@H](Cc1ccc(OCc2ccc([N+](=O)[O-])cc2)cc1)NC(=O)[C@@H]1CCC(=O)N1Cc1ccccc1` the value was 18 nM.
As to `Cc1ccc([N+](=O)[O-])c(C(=O)Nc2ccc(C[C@H](NC(=O)C3CCC(=O)N3Cc3ccccc3)C(=O)O)cc2)c1` (stereo partly drawn), the IC50 is 77 nM on Integrin alpha-4/beta-1 [1] and 0.74 nM on Integrin alpha-4/beta-1 [2].
For `N#Cc1cccc(C(=O)Nc2ccc(C[C@H](NC(=O)C3CCC(=O)N3Cc3ccccc3)C(=O)O)cc2)c1` (stereo partly drawn), in that order: 260 nM and 4.6 nM.
In the case of `NS(=O)(=O)c1ccc(C(=O)Nc2ccc(C[C@H](NC(=O)C3CCC(=O)N3Cc3ccccc3)C(=O)O)cc2)cc1` (stereo partly drawn), the IC50 on Integrin alpha-4/beta-1 [1] was found to be 1060 nM; on Integrin alpha-4/beta-1 [2] it was 3.5 nM.
For the compound `Cc1ccc(C(=O)Nc2ccc(C[C@H](NC(=O)C3CCC(=O)N3Cc3ccccc3)C(=O)O)cc2)c(Cl)n1` (stereo partly drawn), the IC50 on Integrin alpha-4/beta-1 [1] amounted to 33 nM; on Integrin alpha-4/beta-1 [2] it was 2.4 nM.
On to `O=C(NCc1ccc(C[C@H](NC(=O)[C@@H]2CCC(=O)N2Cc2ccccc2)C(=O)O)cc1)c1cccnc1`, for which the IC50 at Integrin alpha-4/beta-1 [2] was 53 nM.
The same measure, in the same setting: to `O=C(O)[C@H](Cc1ccc(C#Cc2ccccc2)cc1)NC(=O)[C@@H]1CCC(=O)N1Cc1ccccc1` belongs 53 nM.
`O=C(O)[C@H](Cc1ccc(CCc2ccccc2)cc1)NC(=O)[C@@H]1CCC(=O)N1Cc1ccccc1`: at Integrin alpha-4/beta-1 [2], the concentration for half-maximal inhibition (IC50) worked out at 38 nM.

Values taken from ChEMBL document CHEMBL1133330, “N-benzylpyroglutamyl-L-phenylalanine derivatives as VCAM/VLA-4 antagonists” (Bioorg Med Chem Lett, 2000).
